Reference: US20130263297A1, “METHODS OF TREATING CANCER” (Cedars-Sinai Medical Center, priority 2010, published 2013)
“Also recorded” adds a separate entry of the source.

Experiments:
[1] = tested on: RANKL-expressing prostate cancer cells; test: Stem cell and neuroendocrine marker expression; assay type: cell-based
[2] = tested on: castration-resistant prostate cancer (CRPC) with bone metastasis; prostate or breast cancers; details: cited from earlier work
[3] = target: GFP-tagged RANKL stably expressed in ARCaPE cells (ARCaPE-RANKL); test: cell-based or functional assay
[4] = tested on: LNCaP-RANKL cells; test: Pathway inhibitor treatment followed by Western blot analysis, LNCaP-RANKL; assay type: cell-based, human; details: 4 h
Method: ARCaPE and LNCaP cells were cultured in 6-well plate and at 70% confluency, the cells were serum-starved overnight and then treated with 200 ng/ml of trimerized RANKL in serum-free and phenol-red free RPMI-1640 medium for three days before harvesting the cells. ARCaPE-RANKL and LNCaP-RANKL cells were cultured in 6-well plate and treated with 20 μM of LY294002, a PI3K inhibitor, 20 μM of SB203580, an inhibitor of MAP kinase reactivating kinase, or 2 μM of PS341 (bortezomib), a proteasome inhibitor, at 90% confluency for four hours. Cells were lysed in RIPA buffer containing 1× protease inhibitor cocktail (Thermo Fisher Scientific, Waltham, Mass.) and centrifuged, and the supernatants were collected and quantified using Bradford Protein Assay (Thermo Fisher Scientific, Waltham, Mass.). Cell lysates (20-30 μg) were resolved on a 4-12% Bis-Tris gradient SDS-PAGE (Invitrogen, Carlsbad, Calif.) under reducing conditions, followed by transblotting onto nitrocellulose membrane (BioRad, Hercules, Calif.). The membranes were blocked in 5% non-fat milk in PBST for one hour at room temperature (RT) and incubated with diluted primary antibodies in blocking buffer at 4° C. overnight. […]

[5] = tested on: ARCaPE-RANKL cells; test: Pathway inhibitor treatment followed by Western blot analysis, ARCaPE-RANKL; assay type: cell-based, human
Method: (§1) ARCaPE and LNCaP cells were cultured in 6-well plate and at 70% confluency, the cells were serum-starved overnight and then treated with 200 ng/ml of trimerized RANKL in serum-free and phenol-red free RPMI-1640 medium for three days before harvesting the cells. ARCaPE-RANKL and LNCaP-RANKL cells were cultured in 6-well plate and treated with 20 μM of LY294002, a PI3K inhibitor, 20 μM of SB203580, an inhibitor of MAP kinase reactivating kinase, or 2 μM of PS341 (bortezomib), a proteasome inhibitor, at 90% confluency for four hours. Cells were lysed in RIPA buffer containing 1× protease inhibitor cocktail (Thermo Fisher Scientific, Waltham, Mass.) and centrifuged, and the supernatants were collected and quantified using Bradford Protein Assay (Thermo Fisher Scientific, Waltham, Mass.). Cell lysates (20-30 μg) were resolved on a 4-12% Bis-Tris gradient SDS-PAGE (Invitrogen, Carlsbad, Calif.) under reducing conditions, followed by transblotting onto nitrocellulose membrane (BioRad, Hercules, Calif.). The membranes were blocked in 5% non-fat milk in PBST for one hour at room temperature (RT) and incubated with diluted primary antibodies in blocking buffer at 4° C. overnight. The primary antibodies used were RANKL, E-cadherin, vimentin, and OPG (Santa Cruz Biotechnology, Inc., Santa Cruz, Calif.), RANK (Amgen, Thousand Oaks, Calif.), N-cadherin (BD Transduction Laboratories, San Jose, Calif.), phosphor-Akt (Ser 473), Akt, phosphor-p38 (Thr180/Tyr182), p38, phosphor-ERK1/2 (Thr202/Tyr204), ERK, phosphor-SAPK/JNK (Thr183/Tyr185), JNK, phosphor-NF-κB p65 (Ser536), and NF-κB p65 (Cell Signaling Technology, Danvers, Mass.). The membranes were washed with PBST for three times before incubating with peroxidase-conjugated anti-mouse or anti-rabbit secondary antibodies at RT for one hour. After three times washing, the membranes were visualized using ECL Plus reagent (GE Healthcare, Piscataway, N.J.).

[6] = tested on: cMet in LNCaP cells; test: cMet expression and phosphorylation (Western blot), LNCaP; assay type: cell-based, human
[7] = tested on: cMet in ARCaPE cells; test: cMet expression and phosphorylation (Western blot), ARCaPE; assay type: cell-based, human; details: exogeneous RANKL or HGF treatment
[8] = target: Flag-tagged RANKL stably expressed in LNCaP cells (LNCaP-RANKL); test: cell-based or functional assay
[9] = tested on: LNCaP cells; test: EMT marker / RANKL expression and signaling by RT-PCR and Western blot, LNCaP model; assay type: cell-based, human; details: 20 μM cMyc inhibitor
Method: Total RNA from cells was isolated using RNeasy Mini Kit (Qiagen, Valencia, Calif.) according to manufacturer's instructions. Complementary DNA (cDNA) was generated from 3 μg of total RNA using SuperScript® III First-Strand Synthesis System (Invitrogen, Carlsbad Calif.), and 1 μl of cDNA was subjected to PCR analyses using the following primers: RANKL F: 5′-TGGATCACAGCACATCAGAGCAG-3′ (SEQ ID NO:3); RANKL R: 5′-TGGGGCTCAATCTATATCTCGAAC-3′ (SEQ ID NO:4); RANK F: 5′-GGGAAAGCACTCACAGCTAATTTG-3′ (SEQ ID NO:5); RANK R: 5′-GCACTGGCTTAAACTGTCATTCTCC-3′ (SEQ ID NO:6); OPG F: 5′-GCT AAC CTC ACC TTC GAG-3′ (SEQ ID NO:7); OPG R: 5′-TGA TTG GAC CTG GTT ACC-3′ (SEQ ID NO:8); E-cadherin F: 5′-GCCAAGCAGCAGTACATTCTACACG-3′ (SEQ ID NO:9); E-cadherin R: 5′-GCTGTTCTTCACGTGCTCAAAATCC-3′ (SEQ ID NO:10); N-cadherin F: 5′-GATGTTGAGGTACAGAATCGT-3′ (SEQ ID NO:11); N-cadherin R: 5′-GGT CGG TCT GGA TGG CGA-3′ (SEQ ID NO:12); Snail F: 5′-CAGACCCACTCAGATGTCAA-3′ (SEQ ID NO:13); Snail R: 5′-CATAGTTAGTCACACCTCGT-3′ (SEQ ID NO:14); Vimentin F: 5′-GGA CTC GGT GGA CTT CTC-3′ (SEQ ID NO:15); Vimentin R: 5′-CGC ATC TCC TCC TCG TAG-3′ (SEQ ID NO:16). The PCR reaction cycles involved an initial denaturation at 94° C. for 10 min, followed by 36 cycles of 94° C., 1 min; 55° C., 30 sec for RANKL and RANK and 48° C., 1 min for OPG; 72° C., 1 min and a final extension at 72° C. for 10 min. For E-cadherin and N-cadherin gene amplification, the PCR reactions ran for a total of 32 cycles and the annealing temperature was 55° C. and 47° C., respectively for 30 sec. For Snail, Vimentin, and GAPDH amplification, the PCR reactions ran for a total of 28 cycles with annealing temperatures at 48° C. for 30 sec. The amplified PCR products were detected and analyzed on 1% agarose gel.
as §1

[10] = tested on: RANKL promoter in LNCaP and LNCaP-RANKL cells; test: RANKL promoter reporter assay, LNCaP model; assay type: cell-based, human; details: for RANKL promoter activities in LNCaP cells: vitamin D3 and PTH stimulation
[11] = tested on: RANKL promoter in human osteosarcoma SaOS-2 cells; test: RANKL promoter reporter assay, SaOS-2; assay type: cell-based; details: exogenous PTH and vitamin D3
From the text: (§2) Because the inventors are interested in how RANKL is transcriptionally regulated, the inventors have constructed a 2.5 kb 5′ upstream region of RANKL promoter. The inventors used BAC clones (RP11-86N24) to amplify the promoter region of RANKL from human chromosome 13 contig. The whole promoter region (2.5 kb) was then cloned into pGL3 basic luciferase reporter vector. The inventors placed RANKL promoter reporter into ARCaPE,M, C4-2, and a positive cell line, SaOS-2 to examine the basic promoter activity. Then, the inventors stimulated the RANKL promoter by various growth factors, such as vitamin D3, PTH, and TGFβ.

[12] = tested on: RANKL promoter in ARCaPE, ARCaPM and ARCaPE-RANKL cells; test: RANKL promoter reporter assay, ARCaP model; assay type: cell-based, human; details: vitamin D3 and PTH stimulation
From the text: as §2

[13] = men with clinical progressive prostate or breast cancers
[14] = 20 μM LY294002 or 2 μM PS341, 4 h

In the case of denosumab, the “expression of neuroendocrine markers” value [1] is listed as “blocked”, the “expression of stem cell markers” value [1] is listed as “antagonized” and the “osteonecrosis (undesirable side effects)” value ([2]; human, in vivo) is listed as “reported in some patients”. For the same molecule, the “patients' survival” value [2, 13] was “improved”, the skeletal related events [2, 13] was “reduced” and the “progression of castration-resistant prostate cancer (CRPC)” value ([2]; patients with bone metastasis) was “delay or prevent”.

Work on “recombinant osteoprotegerin (OPG) (receptor)” yielded a formation of mature osteoclasts (TRAP+ multinucleated cells) in co-culture of RAW264.7 with ARCaPE-RANKL cells [3] of 2 fold.

For `C[S+]([O-])c1ccc(-c2nc(-c3ccncc3)c(-c3ccc(F)cc3)[nH]2)cc1` (stereo not shown) [SB203580], the “phosphorylated level of P65 in LNCaP-RANKL cells” value ([4]; 20 μM) was “reduction” and the “phosphorylated level of P65 in ARCaPE-RANKL cells” value ([5]; 20 μM, 4 h) was “reduction”.

In the case of `CC(C)C[C@H](NC(=O)[C@H](Cc1ccccc1)NC(=O)c1cnccn1)B(O)O` [PS341, bortezomib], the “RANKL-induced EMT in LNCaP-RANKL cells” value ([4]; 2 μM) is reported as “prevented”, the “RANKL-induced EMT in ARCaPE-RANKL cells” value ([5]; 2 μM, 4 h) is reported as “prevented” and the “E-cadherin expression in ARCaPE-RANKL cells” value [5, 14] is reported as “increased”. For the same molecule, the “vimentin and RANKL expression in ARCaPE-RANKL cells” value [5, 14] was “decreased”.

In the case of “HGF: HGF, exogenous treatment activating c-Met”, the “p-c-Met expression of the RANKL-induced c-Met” value ([6]; addition of HGF) is reported as “increased”, the “cMet expression and phosphorylated level of cMet in LNCaP cells” value ([6]; exogeneous RANKL or HGF treatment) is reported as “significantly increased” and the “cMet expression and phosphorylated level of cMet in ARCaPE cells” value [7] is reported as “significantly increased”.

recombinant osteoprotegerin (OPG) gave a formation of mature osteoclasts (TRAP+ multinucleated cells) in co-culture of RAW264.7 with LNCaP-RANKL cells [8] of 2 fold.

In the case of `CCc1ccc(/C=C2/SC(=S)NC2=O)cc1` [10058-F4, reference compound], the “RANKL protein expression in LNCaP-RANKL cells or LNCaP cells treated with RANKL” value [9] is reported as “significantly decreased” and the “RANKL transcriptional activity in LNCaP-RANKL cells or LNCaP cells treated with RANKL” value ([10]; 20 μM cMyc inhibitor) is reported as “significantly decreased”.

With `C=C1CC[C@H](O)C/C1=C/C=C1\CCC[C@]2(C)[C@@H]([C@H](C)CCCC(C)C)CC[C@@H]12` [vitamin D3, reference compound] the “RANKL transcriptional (promoter) activity in SaOS-2 cells” value [11] was “induced; also recorded: up-regulated”, the “RANKL promoter activities in LNCaP cells” value [10] was “induced” and the “RANKL promoter activities in ARCaPE cells” value [12] was “induced”.

B1: parathyroid hormone (protein, UniProt P01270 32-115, looked up)
Parathyroid hormone: SVSEIQLMHNLGKHLNSMERVEWLRKKLQDVHNFVALGAPLAPRDAGSQRPRKKEDNVLVESHEKSLGEADKADVNVLTKAKSQ
modifications: Parathyroid hormone
For B1, the “RANKL transcriptional (promoter) activity in SaOS-2 cells” value [11] was “induced; also recorded: up-regulated”, the “RANKL promoter activities in LNCaP cells” value [10] was “induced” and the “RANKL promoter activities in ARCaPE cells” value [12] was “induced”.
